# Measurements published in patent US20100138935A1, “Detection of cellular stress” (priority 2004, published 2010).
# What was measured:
# HOZ mice [1] = experiment: Histopathology (H&E) of HOZ mouse liver and kidney; type: in vivo; settings: 10 mg/kg i.p. in saline, 24 hours
# Experimental: Two further slices (˜2 mm thickness) were placed in 10% neutral buffered formalin (10% NBF) overnight then processed, sectioned and stained with haematoxylin and eosin (H&E).
# Initially, one HOZ mouse was given 10 mg/kg body weight cadmium chloride i.p. One control animal received the vehicle solution, isotonic saline, i.p. and an untreated animal was used as a second control. The animals were killed 24 hours after dosing and liver, kidney and brain were collected for H&E staining and lacZ histology.
# Sections of HOZ mouse liver and kidney were prepared and stained according to standard procedures (H&E). (a, b) Naive control; (c, d) Saline treated; (e, f) Cadmium chloride treated (10 mg/kg i.p. in saline). All images in FIG. 5 are of H&E stained sections: (a, c and e) are of liver; b, d and f are of kidney (original magnification ×100).
# HO-1 mRNA = experiment: RT-PCR assay of endogenous HO-1 mRNA in HOZ mouse tissue; type: in vivo
# Experimental: Analysis of the expression of endogenous genes was carried out by RT-PCR using the ABI Prism 7000 system. For RT-PCR analysis, frozen tissue samples were homogenised using a Polytron PT-mr2100 homogeniser in 1 ml TRI reagent (Sigma). Total RNA for each sample was isolated according to the manufacturer's instructions and RNA pellets stored at −70° C. under 75% ethanol. Each of the RNA pellets was resuspended in RNAase/DNAase free dH2O and quantified using a Genequant RNA/DNA calculator (Amersham). First strand cDNA synthesis was performed for each sample using 2 μg of total RNA and the Protoscript First Strand cDNA Synthesis Kit (New England Biolabs) according to the manufacturer's protocol. Additional steps to degrade RNA following cDNA synthesis were performed. Each sample was diluted to 50 μl with RNAase/DNAase-free dH2O and stored at −20° C.
# In order to measure variation in p21 or Haemoxygenase-1 (HO-1) expression it was necessary to include an internal control. Amplification of β-Actin cDNA provides a standard to control for variations on RNA content between samples. The final reactions therefore consisted of two separate reactions (target gene and β-Actin cDNA amplification) performed simultaneously in a single tube. The PCR conditions used were 10 minutes at 95° C. followed by 40 cycles of denaturing for 15 seconds at 95° C. and annealing/extending for 1 minute at 60° C. The primers and probe for the p21 and HO-1 amplification reactions were obtained from ABI (Assay-On-Demand kit). These methods have been pre-validated for the standard conditions used on the ABI Prism 7000 system.
# The effects of cadmium chloride on endogenous HO-1 expression were determined by RT-PCR assay of HO-1 mRNA levels in liver and kidney tissue from HOZ mice. […] The bars show relative concentrations of HO-1 mRNA assayed by RT-PCR in brain, kidney and liver tissue of mice that had received 10 mg/kg cadmium chloride 24 hours earlier compared with mice that had received saline and untreated mice. […]
# HOZ mice [2] = experiment: Plasma ALT as a marker of hepatotoxicity in HOZ mice; type: in vivo, mouse
# Experimental: (§1) Terminal blood samples were taken by cardiac puncture into lithium/heparin-coated tubes for preparation of plasma. Tissues, as defined in each protocol, were routinely dissected as follows:
# (§2) Following removal into tubes suitable for plasma preparation, venous blood samples were mixed on a roller for 10 minutes then cooled on ice. Red blood cells were removed by centrifugation at 2,000 rpm for 10 minutes at 8-10° C. The supernatant (plasma) was transferred to a second tube and stored at −70° C. until required for analysis.
# (§3) Plasma samples were analysed for appropriate analytes on a Roche autoanalyser (Cobas Integra 400) according to the manufacturer's instructions. The routine markers measured included: (for liver damage) plasma alanine aminotransferase (ALT), aspartate aminotransferase (AST) and alkaline phosphatase (ALP) and (for kidney damage) plasma creatinine and blood urea nitrogen (BUN).
# Two plasma enzyme markers, ALT and AST, were used as markers of hepatotoxicity in HOZ mice treated with cadmium chloride or sodium arsenite. The results of this analysis for HOZ mice treated with 10 mg/kg cadmium chloride are shown in Table 1 and for HOZ mice treated with 2-8 mg/kg cadmium chloride or 13 mg/kg sodium arsenite in Tables 2 and 3.
# HOZ mice [3] = experiment: BUN as a marker of nephrotoxicity in HOZ mice; type: in vivo, mouse; design: BUN: unit not given here
# Experimental: as §1, §2, §3
# The increase in BUN was 6-fold at 8 hours and 44-fold after 24 hours.
# [4] = female, 8 mg/kg, after 24 hours
smiles,measurement,setting,value
"[Cl][Cd][Cl] [Cadmium Chloride, cadmium chloride]",kidney histology (H&E),HOZ mice [1],occasional necrotic proximal convoluted tubules (PCTs)
same,liver histology (H&E),HOZ mice [1],acute toxicity manifesting as hepatocyte vacuolation and areas of necrosis associated with deposits of erythrocytes
same,HO-1 mRNA levels in kidney and liver compared to controls,"HO-1 mRNA; 10 mg/kg, after 24 hours",very substantially elevated
same,HO-1 mRNA in liver versus dose,"HO-1 mRNA; both sexes, 0-8 mg/kg, 8 hours",clear dose-response relationship
same,HO-1 mRNA levels in liver,"HO-1 mRNA; highest doses, 24 hours",slightly elevated
same,ALT,"HOZ mice [2]; HOZ mouse, 10 mg/kg i.p., 24 hours",1834.8 U/L
same,Plasma ALT,"HOZ mice [2]; female, 1 mg/kg, 8 hours",33.3 u/L
same,Plasma ALT,"HOZ mice [2]; female, 1 mg/kg, 24 hours",28.2 u/L
same,Plasma ALT,"HOZ mice [2]; female, 2 mg/kg, 8 hours",22.8 u/L
same,Plasma ALT,"HOZ mice [2]; female, 2 mg/kg, 24 hours",26.1 u/L
same,Plasma ALT,"HOZ mice [2]; female, 4 mg/kg, 8 hours",55.6 u/L
same,Plasma ALT,"HOZ mice [2]; female, 4 mg/kg, 24 hours",23.7 u/L
same,increase in plasma ALT,"HOZ mice [2]; female, 4 mg/kg, after 8 hours",2.4 fold
same,increase in ALT,"HOZ mice [2]; female, 4 mg/kg, second statement, printed as after 8 hours",≤ 2 fold
same,Plasma ALT,"HOZ mice [2]; female, 8 mg/kg, 8 hours",3930.6 u/L
same,Plasma ALT,"HOZ mice [2]; female, 8 mg/kg, 24 hours",7010.4 u/L
same,increase in plasma ALT,"HOZ mice [2]; female, 8 mg/kg, after 8 hours",170 fold
same,increase in plasma ALT,HOZ mice [2]; [4],275 fold
same,Plasma ALT,"HOZ mice [2]; male, 1 mg/kg, 8 hours",70.3 u/L
same,Plasma ALT,"HOZ mice [2]; male, 1 mg/kg, 24 hours",33.1 u/L
same,Plasma ALT,"HOZ mice [2]; male, 2 mg/kg, 8 hours",21.7 u/L
same,Plasma ALT,"HOZ mice [2]; male, 2 mg/kg, 24 hours",19.4 u/L
same,Plasma ALT,"HOZ mice [2]; male, 4 mg/kg, 8 hours",50.4 u/L
same,Plasma ALT,"HOZ mice [2]; male, 4 mg/kg, 24 hours",74.7 u/L
same,Plasma ALT,"HOZ mice [2]; male, 8 mg/kg, 8 hours",50.1 u/L
same,Plasma ALT,"HOZ mice [2]; male, 8 mg/kg, 24 hours",306.3 u/L
same,increase in ALT,"HOZ mice [2]; male, 8 mg/kg, 24 hours after treatment",7.9 fold
same,increase in ALT and AST,"HOZ mice [2]; male, all other doses and time points",≤ 2 fold
same,BUN,"HOZ mice [3]; female, 1 mg/kg, 8 hours",5.10
same,BUN,"HOZ mice [3]; female, 1 mg/kg, 24 hours",4.36
same,BUN,"HOZ mice [3]; female, 2 mg/kg, 8 hours",3.33
same,BUN,"HOZ mice [3]; female, 2 mg/kg, 24 hours",2.85
same,BUN,"HOZ mice [3]; female, 4 mg/kg, 8 hours",4.77
same,BUN,"HOZ mice [3]; female, 4 mg/kg, 24 hours",3.66
same,nephrotoxicity as measured by BUN,"HOZ mice [3]; female, 8 mg/kg",mild nephrotoxicity
same,BUN,"HOZ mice [3]; female, 8 mg/kg, 8 hours",22.86
same,BUN,"HOZ mice [3]; female, 8 mg/kg, 24 hours",98.16
same,increase in BUN,HOZ mice [3]; [4],44 fold
same,increase in BUN,"HOZ mice [3]; female, 8 mg/kg, at 8 hours",6 fold
same,nephrotoxicity as measured by BUN,HOZ mice [3]; male mice,No nephrotoxicity
same,BUN,"HOZ mice [3]; male, 1 mg/kg, 8 hours",4.54
same,BUN,"HOZ mice [3]; male, 1 mg/kg, 24 hours",5.27
same,BUN,"HOZ mice [3]; male, 2 mg/kg, 8 hours",4.24
same,BUN,"HOZ mice [3]; male, 2 mg/kg, 24 hours",5.10
same,BUN,"HOZ mice [3]; male, 4 mg/kg, 8 hours",3.87
same,BUN,"HOZ mice [3]; male, 4 mg/kg, 24 hours",4.11
same,BUN,"HOZ mice [3]; male, 8 mg/kg, 8 hours",3.84
same,BUN,"HOZ mice [3]; male, 8 mg/kg, 24 hours",4.85
